{"source": "patent EP0717990B1", "about": "“COMPOSITION FOR REMEDYING DRUG DEPENDENCE” (TAISHO PHARMACEUTICAL CO. LTD, priority 1993, dated 1995)", "key": {"[1]": {"tested_on": "cocaine-dependent monkeys", "assay": "Effect on cocaine-dependent monkeys (drug self-administration)", "format": "in vivo, male cynomolgus monkeys", "details": "cocaine intake per day, cocaine-dependent cynomolgus monkeys", "description": "[Investigation on an effect on cocaine-dependent monkeys]\nA test was carried out according to the method described in Drug and Alcohol Dependence, 1989, Vol. 24, pp. 135-142.\nA catheter was allowed to indwell chronically in the vein of each monkey and the investigation was carried out by a drug self-administration experimental method in which a definite amount of a liquid drug was automatically poured according to a reinforcement schedule when the animal pushed a lever. When the cocaine intake per day was 20 mg/kg/day or more for 10 consecutive weeks or more, it was judged that the dependence was caused."}, "[2]": {"tested_on": "phencyclidine (PCP)-induced abnormal behavior", "assay": "Antagonism against phencyclidine (PCP)-induced abnormal behavior (head weaving)", "details": "Rattus norvegicus, read-out: ED50 value (mg/kg)"}, "alcohol dependence": {"tested_on": "alcohol dependence", "assay": "Effect on alcohol dependence (conditioned place preference in shuttle box)", "format": "in vivo, male Wistar strain rats", "details": "rats; for Desire-arising effect for ethanol treatment compartment: 30 minutes before ethanol administration", "description": "[Investigation on an effect on alcohol dependence]\nA test was carried out according to the method described in Pharmacology Biochemistry and Behavior, Vol. 35, pp. 485-487 (1990).\nCompound B used according to the present invention was administered in a dose of 0.1 or 1 mg/kg 30 minutes before ethanol administration in each run.\nAn experimental apparatus was a 2-compartments box (width 30 cm, length 60 cm, height 30 cm) made of acrylic plates and divided equally into a white compartment and a black compartment by a guillotine door provided in the middle of the box. In addition, the floor of the box had been made non-slip in the white compartment and slippery in the black compartment, that is, the box used was a so-called shuttle box capable of giving both a visual stimulus of black and white and a tactile stimulus of the floor.\nConditioning was carried out once a day for 6 days. Each rat was treated with ethanol (0.5 or 1 g/kg) or physiological saline and then confined in one of the compartment for 50 minutes. The next day, the rat was subjected to a treatment different from that carried out on the previous day, and then confined in the other compartment for 50 minutes. The above procedure was repeated three times. For minimizing the influence of the difference of the conditioning procedure on the result, a counter balance method was adopted, that is, there were employed the following 4 combinations of the ethanol treatment or the physiological saline treatment and the white or black compartment: • 1) ethanol and white; physiological saline and black on the next day, • 2) physiological saline and black; ethanol and white on the next day, • 3) ethanol and black; physiological saline and white on the next day, and • 4) physiological saline and white; ethanol and black on the next day.\nAs a control group, a group which had been given physiological saline instead of being subjected to ethanol treatment was conditioned in the same manner as above.\nAfter 6 days of the conditioning procedure, each run of measuring the length of stay in each compartment was carried out for 15 minutes. Neither ethanol nor physiological saline was administered to the conditioned rats. In the apparatus, a platform (width 2 cm, length 5 cm) made of a wire net and having a gray color intermediate between white and black was set in the middle of the box, i.e., the compartmenting portion. The length of stay was measured as follows: each rat was placed on the platform, and then a time for which the forefeet and head of the rat were in the black or white compartment was measured as a length of stay in the black or white compartment, respectively, for 15 minutes after the rat got down the platform to become able to come from or go to any of the white and black compartments freely. The desire-arising effect for the drug treatment compartment, i.e., the place preference was determined in terms of a value obtained by subtracting the length of stay in the physiological saline treatment compartment from the length of stay in the drug treatment compartment."}, "[3]": {"assay": "Single-administration toxicity test", "design": "species or system Wistar strain rats", "details": "Wistar, rat, in vivo, oral, observation 14 days, read-out: Approximate LD50", "description": "[Single-administration toxicity test]\nKind of animal: Wistar strain rats, male and female, 6 to 7 weeks old (at the time of administration). Number of animals: 5 males and 5 females in each group. Administration route: Oral. Number of groups: male 6 groups, female 6 groups. Administered drug: N,N-di-n-propyl-2-[4-methoxy-3-(2-phenylethoxy)phenyl]ethylamine hydrochloride. Dosage form: a solution in distilled water. Dose: male 312 to 891 mg/kg, female 240 to 685 mg/kg (common ratio […]). Observation time: 14 days."}, "sigma receptor": {"tested_on": "sigma receptor", "details": "result in words; cited from earlier work"}, "D1": {"biological_target": "D1 (Homo sapiens, UniProt P21728)", "sequence (P21728 whole entry)": "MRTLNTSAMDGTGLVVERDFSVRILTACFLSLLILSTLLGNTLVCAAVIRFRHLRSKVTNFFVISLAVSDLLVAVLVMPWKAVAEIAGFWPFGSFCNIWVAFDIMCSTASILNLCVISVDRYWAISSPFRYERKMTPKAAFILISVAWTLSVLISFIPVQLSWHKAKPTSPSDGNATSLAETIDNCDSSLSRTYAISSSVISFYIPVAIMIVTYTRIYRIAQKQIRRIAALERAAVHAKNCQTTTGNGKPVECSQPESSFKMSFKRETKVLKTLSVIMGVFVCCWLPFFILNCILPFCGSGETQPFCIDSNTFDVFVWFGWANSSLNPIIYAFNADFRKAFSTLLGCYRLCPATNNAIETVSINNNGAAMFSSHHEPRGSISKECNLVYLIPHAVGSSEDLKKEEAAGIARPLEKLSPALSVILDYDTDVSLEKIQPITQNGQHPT", "details": "result in words; cited from earlier work"}, "D2": {"biological_target": "D2 (Homo sapiens, UniProt P14416)", "sequence (P14416 whole entry)": "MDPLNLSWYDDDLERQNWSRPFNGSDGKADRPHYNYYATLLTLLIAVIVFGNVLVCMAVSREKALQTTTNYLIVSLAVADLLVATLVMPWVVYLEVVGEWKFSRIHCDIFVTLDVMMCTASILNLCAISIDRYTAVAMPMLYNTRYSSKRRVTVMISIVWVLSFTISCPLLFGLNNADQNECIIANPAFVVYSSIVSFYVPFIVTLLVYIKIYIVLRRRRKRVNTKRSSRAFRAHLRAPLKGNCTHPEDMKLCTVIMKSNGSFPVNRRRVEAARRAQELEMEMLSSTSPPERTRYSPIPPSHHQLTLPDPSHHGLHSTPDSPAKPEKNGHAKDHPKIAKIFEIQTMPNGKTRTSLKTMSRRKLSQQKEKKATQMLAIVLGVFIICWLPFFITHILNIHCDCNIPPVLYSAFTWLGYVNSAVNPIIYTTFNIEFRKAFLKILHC", "details": "result in words; cited from earlier work"}, "5-HT1A": {"biological_target": "T1, 5-HT1A (Homo sapiens, UniProt P08908)", "T1 sequence (P08908 1-422)": "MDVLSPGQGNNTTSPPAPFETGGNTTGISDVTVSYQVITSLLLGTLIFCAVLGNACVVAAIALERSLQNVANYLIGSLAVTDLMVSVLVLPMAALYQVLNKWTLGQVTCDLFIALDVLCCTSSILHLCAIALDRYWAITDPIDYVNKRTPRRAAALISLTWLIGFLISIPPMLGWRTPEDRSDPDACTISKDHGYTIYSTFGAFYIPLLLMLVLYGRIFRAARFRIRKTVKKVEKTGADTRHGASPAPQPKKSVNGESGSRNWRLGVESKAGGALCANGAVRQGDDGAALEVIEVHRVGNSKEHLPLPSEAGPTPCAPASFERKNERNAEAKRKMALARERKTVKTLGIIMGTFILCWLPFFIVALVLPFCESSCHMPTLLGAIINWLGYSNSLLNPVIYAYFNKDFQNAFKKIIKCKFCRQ", "details": "result in words; cited from earlier work"}, "5-HT2": {"biological_target": "5-HT2 (Homo sapiens, UniProt P28223)", "sequence (P28223 whole entry)": "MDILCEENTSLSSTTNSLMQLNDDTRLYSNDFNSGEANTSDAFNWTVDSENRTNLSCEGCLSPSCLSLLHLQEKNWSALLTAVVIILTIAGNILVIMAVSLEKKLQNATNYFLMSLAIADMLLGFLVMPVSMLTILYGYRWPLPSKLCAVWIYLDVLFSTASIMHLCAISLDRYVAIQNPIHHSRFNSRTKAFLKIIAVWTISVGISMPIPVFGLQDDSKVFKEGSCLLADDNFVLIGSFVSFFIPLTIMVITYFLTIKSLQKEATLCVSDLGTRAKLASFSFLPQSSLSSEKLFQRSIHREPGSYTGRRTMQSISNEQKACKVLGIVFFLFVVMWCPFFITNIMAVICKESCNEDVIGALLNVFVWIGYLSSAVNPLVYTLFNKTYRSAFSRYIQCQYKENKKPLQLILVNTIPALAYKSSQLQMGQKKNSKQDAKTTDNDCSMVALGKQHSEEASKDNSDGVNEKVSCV", "details": "result in words; cited from earlier work"}, "[4]": {"details": "orally administered in a dose of 0.1 mg/kg"}}, "note": "Like-named read-outs stand apart in the source and are kept apart here."}
{"smiles": "CCCN(CCC)CCc1cc(Cl)ccc1OCCc1ccccc1.O=C(O)C(=O)O", "note": "[A, N,N-di-n-propyl-2-[5-chloro-2-(2-phenylethoxy)phenyl]ethylamine oxalate]", "values": [{"measurement": "Percentage of decrease in cocaine intake (%)", "setting": "[1]; [4]", "value": 62.6, "unit": "%"}, {"measurement": "ED50", "setting": "[2]", "value": 0.3, "unit": "mg/kg"}]}
{"smiles": "CCCN(CCC)CCCc1ccc(OC)c(OCCc2ccccc2)c1.Cl", "note": "[C, N,N-di-n-propyl-3-[4-methoxy-3-(2-phenylethoxy)phenyl]propylamine hydrochloride]", "values": [{"measurement": "Percentage of decrease in cocaine intake (%)", "setting": "[1]; [4]", "value": 77.1, "unit": "%"}, {"measurement": "ED50", "setting": "[2]", "value": 0.22, "unit": "mg/kg"}]}
{"smiles": "CCCN(CCC)CCc1ccc(OC)c(OCCc2ccccc2)c1.Cl", "note": "[Compound B, N,N-di-n-propyl-2-[4-methoxy-3-(2-phenylethoxy)phenyl]ethylamine hydrochloride]", "values": [{"measurement": "Percentage of decrease in cocaine intake (%)", "setting": "[1]; [4]", "value": 89.3, "unit": "%"}, {"measurement": "ethanol dependence", "setting": "alcohol dependence; 0.1 or 1 mg/kg, result in words", "value": "suppressed the ethanol dependence in a dose-dependent manner"}, {"measurement": "Desire-arising effect for ethanol treatment compartment", "setting": "alcohol dependence; Ethanol (0.5 g/kg) + B 0.1 mg/kg", "value": "104 ± 41"}, {"measurement": "Desire-arising effect for ethanol treatment compartment", "setting": "alcohol dependence; Ethanol (0.5 g/kg) + B 1 mg/kg", "value": "11 ± 32"}, {"measurement": "Desire-arising effect for ethanol treatment compartment", "setting": "alcohol dependence; Ethanol (1 g/kg) + B 0.1 mg/kg", "value": "101 ± 47"}, {"measurement": "Desire-arising effect for ethanol treatment compartment", "setting": "alcohol dependence; Ethanol (1 g/kg) + B 1 mg/kg", "value": "9 ± 12"}, {"measurement": "LD50 at 14 days", "setting": "[3]; female rats", "value": "312 to 406", "unit": "mg/kg"}, {"measurement": "LD50 at 14 days", "setting": "[3]; male rats", "value": "685 to 891", "unit": "mg/kg"}, {"measurement": "ED50", "setting": "[2]", "value": 0.12, "unit": "mg/kg"}]}
{"smiles": "CCCN(CCC)CCc1cccc(OC)c1OCCc1ccccc1.Cl", "note": "[D, N,N-di-n-propyl-2-[3-methoxy-2-(2-phenylethoxy)phenyl]ethylamine hydrochloride]", "values": [{"measurement": "Percentage of decrease in cocaine intake (%)", "setting": "[1]; [4]", "value": 49.3, "unit": "%"}, {"measurement": "ED50", "setting": "[2]", "value": 0.27, "unit": "mg/kg"}]}
{"smiles": "CCCN(CCC)CCc1ccc(OC)c(OCCc2ccccc2)c1", "note": "[N,N-dipropyl-2-[4-methoxy-3-(2-phenylethoxy)phenyl]ethylamine]", "values": [{"measurement": "affinity to sigma receptor", "setting": "sigma receptor", "value": "high affinity"}, {"measurement": "affinity for D1", "setting": "D1", "value": "low affinity"}, {"measurement": "affinity for D2", "setting": "D2", "value": "low affinity"}, {"measurement": "affinity for 5-HT1A", "setting": "5-HT1A", "value": "low affinity"}, {"measurement": "affinity for 5-HT2", "setting": "5-HT2", "value": "low affinity"}]}
{"smiles": "C[C@@H]1CN(CCCn2c3ccccc3c3ccccc32)C[C@H](C)N1", "note": "[Rimcazole, reference compound]", "values": [{"measurement": "Percentage of decrease in cocaine intake (%)", "setting": "[1]; orally administered in a dose of 10 mg/kg", "value": 28.0, "unit": "%"}, {"measurement": "ED50", "setting": "[2]", "value": 28, "unit": "mg/kg"}]}
